Laboratory results: US20230092389A1, “UNIT DOSES, AEROSOLS, KITS, AND METHODS FOR TREATING HEART CONDITIONS BY PULMONARY ADMINISTRATION” (InCarda Therapeutics, Inc., priority 2017, published 2023)
Values joined by “and” are separate entries in the source; they are usually repeats but may differ in a detail not shown here. Equal values may be shown once. Read-outs that look alike come from different tables or passages of the source.

Tests used:
[1] = system: beagle dogs with induced AF; assay: Cardioversion of induced AF by IT or IV flecainide, anesthetized dogs (Example 7); assay type: in vivo; details: for Time to NSR, individual animals: cumulative dose 0.75-1.0 mg/kg, animals 001-006
Protocol: The study was carried out in anesthetized healthy adult beagle dogs with induced AF. Acute AF was induced using the combination of phenylephrine ([…]), to increase heterogeneity of atrial refractory periods via increased loading and through a baroreceptor-mediated increase in parasympathetic efferent activity, and right atrial burst pacing (40-50 Hz for ˜15 min). The AF induced using this method was, in general, stable for more than 30 mins.
The cardiac rhythm was monitored prior to, during AF, and up to 10 min post-dosing and/or until conversion to NSR.

healthy volunteers = assay: Phase 1 (FLE-001) pharmacodynamics, ECG intervals; assay type: in vivo, human; details: for magnitude of QRS prolongation: 1 min post-inhalation; for magnitude of QRS prolongation / maximal QRS interval prolongation: post-hoc population; for prolongation in PR interval duration: Cohort 3, 60 mg eTLD
Protocol: The ECG recordings included: 1) Continuous real-time ECG telemetry for observation of patient safety starting at 12 hours pre-dose and continuing for 12 hours post-dose, 2) 12-lead ECGs for immediate review by medical staff to ascertain the safety of the procedures and drug administration were recorded at pre-specified (or any time as needed) before dosing (pre-dose) and after dosing (post-dose), and 3) continuous 12-lead ECG (cECG, iCardiac Holter monitoring) was recorded for 24 hours, starting 1 hour prior to dosing and up to 24 hours post dosing.

[2] = both, human, in vivo; for Dist. t1/2α / Elim. t1/2β: inhaled or intranasal
From the text: 3 cohorts of subjects, in total 34 healthy adult volunteers, were recruited for Part A study.
Part B was an open label non-randomized crossover in a cohort of 6 evaluable healthy adult volunteers.
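Throughout, for Cmax of the two excluded subjects: measured in healthy adult volunteers.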
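Throughout, for Dist. t1/2α: measured in healthy adult volunteers.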
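Throughout, for Elim. t1/2β: measured in healthy adult volunteers.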
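Throughout, for Tmax in excluded subjects: measured in healthy adult volunteers.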
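Throughout, for elimination t1/2β: measured in healthy adult volunteers.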

elimination t1/2β [2]: 9 to 12 h
Cmax of the two excluded subjects ([2]; 40 mg): 43.5 ng/mL
Cmax of the two excluded subjects ([2]; 60 mg): 51.3 ng/mL
Tmax in excluded subjects ([2]; 60 mg): greater than 15 minutes
Dist. t1/2α ([2]; 20 mg): 3.86 (34) min
Elim. t1/2β ([2]; 20 mg): 9.87 (25) hours
Dist. t1/2α ([2]; 40 mg): 4.19 (39) min
Elim. t1/2β ([2]; 40 mg): 9.0 (24) hours
Dist. t1/2α ([2]; 60 mg): 3.47 (17) min
Elim. t1/2β ([2]; 60 mg): 12.0 (14) hours
SMILES: O=C(NCC1CCCCN1)c1cc(OCC(F)(F)F)ccc1OCC(F)(F)F (stereo not shown) [flecainide]
effects in BP, VR and LV dP/dtmax upon conversion, IV vs IT ([1]; FIG. 69): Flecainide given IV caused greater effects
dogs converted from AF to NSR ([1]; IT): 6/6
representative ECG: conversion of AF to NSR ([1]; IT 0.75 mg/kg (FIGS. 68A-D)): conversion of AF to NSR
Time to NSR, individual animals ([1]; IT, cumulative IT dose 0.75 mg/kg): 12 s and 23 s and 62 s
Time to NSR, individual animals ([1]; IT, cumulative IT dose 0.75 (0.25 + 0.5) mg/kg): 147 s and 52 s
Time to NSR, individual animals ([1]; IT, cumulative IT dose 1.0 (0.75 + 0.25) mg/kg): 83 s
Time to NSR, Mean ± SEM ([1]; IT, mean dose 0.79 ± 0.04 mg/kg, 6 dogs, 0.04 mg/kg): 63 ± 18 s
dogs converted from AF to NSR ([1]; IV bolus): 2/2
time to conversion of AF to NSR ([1]; IV bolus): 29 s
sufficiency of LV (left atrium) levels to terminate AF ([1]; pulmonary delivery): sufficient to rapidly terminate AF
magnitude of QRS prolongation (healthy volunteers; 20 mg eTLD): 3.0 ms
magnitude of QRS prolongation (healthy volunteers; 40 mg eTLD): 8.2 ms
magnitude of QRS prolongation (healthy volunteers; 60 mg eTLD): 16 ms
difference of QRS interval duration from pre-dose baseline (healthy volunteers; 2 to 24 hours post-inhalation of 30 mg eTLD, baseline 78±2 msec): < 2 ms
PR interval (healthy volunteers; 8 and 24 hours post-IV infusion): fully returned to pre-drug baseline
QRS interval duration (healthy volunteers; 30 min after completion of inhalation, 20-60 mg eTLD): returned to near pre-dose levels
PR interval longer than pre-drug baseline (healthy volunteers; 2 hours and beyond post-oral IH flecainide): approximately 2 msec
PR interval (healthy volunteers; 2 hours and beyond post-oral IH flecainide, baseline 158.5 msec): 160 ms
QRS interval duration longer than baseline (healthy volunteers; 2 hours following IV infusion, baseline 78±2 msec): 12.5 ms
PR interval longer than pre-drug baseline (healthy volunteers; 2 hours post-IV infusion, baseline 161±3 msec): ~12 ms
QRS interval duration longer than baseline (healthy volunteers; 24 hours following IV infusion): ~7 ms
mean ΔPR (healthy volunteers; Cohort 1, 20 mg eTLD, 1 minute post-dosing): -6 ms
mean ΔPR (healthy volunteers; Cohort 1, 20 mg eTLD, 3 minutes post-dosing): -4.5 ms
mean ΔPR (healthy volunteers; Cohort 1, 20 mg eTLD, 10 minutes to 4 hours after dosing): smaller than −3.0 msec
mean ΔQRS (healthy volunteers; Cohort 1, 20 mg eTLD, between 1 and 3 minutes after end of inhalation): small increase
QRS duration (healthy volunteers; Cohort 2, 40 mg eTLD, between 1 and 3 minutes post-dosing): transient increase
time of maximal increase in QRS interval duration (healthy volunteers; Cohort 2, 40 mg eTLD, majority of subjects): 1 min
prolongation in PR interval duration (healthy volunteers; 1 to 5 min): ~5 ms
prolongation in PR interval duration (healthy volunteers; 10 and 15 minutes): up to 12 msec
non-specific intraventricular conduction delay (healthy volunteers; Cohort 5, IV infusion): 3 of 6 subjects
maximal increase in QRS interval duration, mean (±SEM) (healthy volunteers; Cohort 5, IV infusion 2 mg/kg): 34.2 ± 2.4 ms
duration of QRS widening (healthy volunteers; Cohort 5, inhalation): 15 to 30 min
maximal increase in QRS interval duration, mean (±SEM) (healthy volunteers; Cohort 5, inhalation 30 mg eTLD): 12.4 ± 2.6 ms
duration of QRS widening (healthy volunteers; Cohort 5, intravenous): > 60 min
non-specific intraventricular conduction delay (healthy volunteers; Cohort 5, oral inhalation eTLD 30 mg): not observed
duration of intraventricular conduction delay (healthy volunteers; IV 2 mg/kg, 10 min infusion (FIG. 34)): 5 to 10 min
maximal PR interval prolongation (healthy volunteers; IV infusion 2 mg/kg): 25 ms
T-wave morphology (healthy volunteers; IV infusion 2 mg/kg (FIG. 36)): T-wave notching
lower plasma concentration by inhalation for QRS prolongation of magnitude achieved by IV (6.2/2.7) (healthy volunteers; Part B): 2.3 fold
maximal QRS interval prolongation (healthy volunteers; eTLD 20 mg): 3.5±1.0
smaller change in QRS interval duration, inhalation vs IV infusion (healthy volunteers; eTLD 30 mg vs ~150 mg IV): 2.7 fold
maximal QRS interval prolongation (healthy volunteers; eTLD 40 mg): 10±1.5
maximal QRS interval prolongation (healthy volunteers; eTLD 60 mg): 16±1.4
PR interval (healthy volunteers; end of IV infusion 2 mg/kg, 164±1 msec 45 min prior): 187 ± 6 ms
T-wave morphology (healthy volunteers; inhalation 20, 30, 40 mg eTLD): No changes
lower plasma level following inhalation at similar ΔQRS (healthy volunteers; inhalation vs 5 min into IV infusion): 2.6 fold
PR interval prolongation from start of inhalation (healthy volunteers; inhaled 30 mg eTLD, 5 min after completion of inhalation): 12 ms
changes of PR interval duration (healthy volunteers; inhaled 20 or 40 mg eTLD): Minimal or no changes
temporal relation between plasma concentration and ΔQRS (healthy volunteers; non-steady state, IV and inhalation): changes in QRS interval duration lag those of the peripheral venous concentrations
maximal PR interval prolongation (healthy volunteers; oral inhalation 30 mg eTLD): 12 ms
maximal decrease in QRS amplitude (average of several tracings) (healthy volunteers; subject R222, 40 mg eTLD): ~480 μV
maximal increase in QRS duration (average of several tracings) (healthy volunteers; subject R222, 40 mg eTLD): ~9 ms
increase in QRS duration (QRSd) (healthy volunteers; subject R222, 40 mg eTLD, 1 minute post-dosing): 10 ms
decrease in amplitude of the R-wave (QRSa) (healthy volunteers; subject R222, 40 mg eTLD, 3 min post-dosing): 400 μV
